{"source": "patent US11209440B2", "about": "“T cell balance gene expression, compositions of matters and methods of use thereof” (THE BROAD INSTITUTE, INC., priority 2014, dated 2021)", "key": {"[1]": {"target": "T1, Rorγt (Mus musculus, UniProt P51450)", "T1 sequence (P51450 1-495 isoform P51450-2)": "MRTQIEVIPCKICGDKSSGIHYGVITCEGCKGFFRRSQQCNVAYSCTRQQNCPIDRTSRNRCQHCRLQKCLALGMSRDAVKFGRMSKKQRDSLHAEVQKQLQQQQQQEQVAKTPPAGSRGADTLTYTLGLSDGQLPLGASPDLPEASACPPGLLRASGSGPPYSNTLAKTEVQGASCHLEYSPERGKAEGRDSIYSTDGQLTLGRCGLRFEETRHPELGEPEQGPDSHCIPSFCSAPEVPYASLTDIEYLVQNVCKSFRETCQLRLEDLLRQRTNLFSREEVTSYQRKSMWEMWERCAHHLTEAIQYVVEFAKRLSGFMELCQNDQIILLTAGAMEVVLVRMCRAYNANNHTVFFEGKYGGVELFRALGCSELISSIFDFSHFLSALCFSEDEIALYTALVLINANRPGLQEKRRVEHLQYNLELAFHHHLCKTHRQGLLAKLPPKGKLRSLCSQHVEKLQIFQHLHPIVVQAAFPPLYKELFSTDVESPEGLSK", "test": "Dual luciferase reporter assay in EL4 cells stably transfected with Rorγt vector", "type": "cell-based", "design": "expressed in transfected cells; host or cells: EL4 cells, stably transfected", "details": "EL4 cells with Rorγt and CD5L vector; 5, 0.5, 0.05 μM titration", "description": "Lipidome analysis of Th17 cells. (A) WT and CD5L^−/− naïve T cells were differentiated as in FIG. 46B in the presence of cytokines as indicated. Cells and supernatant were harvested at 96 hours and subjected to MS/LC. Three independent mouse experiments were performed. […] (B) Expression of representative metabolites including a cholesterol ester and a PUFA-containing TAG species. FIG. 48 C, D, E, F-J show as follows: (C) Metabolomic analysis of independent mouse experiments where T cells were differentiated under various cytokine conditions as indicated and harvested at 48 h and 96 h. (D,E) Rorγt ChIP from Th17 cells differentiated as described in A. under various conditions as indicated. F-K. Dual luciferase reporter assay was performed in EL4 cells stably transfected with a control vector or Rorγt vector. (F, G) CD5L retroviral vector was cotransfected in F and G at 0, 25, 50 and 100 ng/well. […] All ChIP and luciferase assay are representative of at least 3 independent experiments."}, "[2]": {"test_system": "Th17 cells", "test": "qPCR and Nanostring signature analysis of Th17 cells treated with free fatty acids", "type": "cell-based, mouse", "description": "(§1) (A) Naïve T cells were sorted from either WT or IL-23RGFP reporter mice, activated with plate-bound anti-CD3/anti-CD28 and differentiated with TGFβ1+IL-6 for 48 hours. […] (B) Cells from WT and Rorc^−/− mice were sorted, differentiated and treated with FFA as in A. Cells were harvested for RNA purification and qPCR. (C) Naïve WT and CD5L^−/− T cells were differentiated as in A. Cells were then lifted, washed and replated in fresh media with no addition of cytokines and in the presence of control or 5 uM of arachidonic acid (PUFA). Cytokine profile of T cells were measured after PMA/ionomycin restimulation. […] Another 48 hours later, cells were harvested for nanostring analysis (D) or qPCR (E).\nNext, the contribution of lipid saturation to Th17 cell pathogenicity was studied."}, "[3]": {"test_system": "Th17 cells", "test": "FACS of IL-17 and IL-23R.GFP in Th17 cells treated with free fatty acids", "type": "cell-based, mouse", "details": "10 uM arachidonic acid or 20 uM palmitic acid, 48 h, FACS", "description": "as §1"}, "[4]": {"target": "T2, PROCR (Mus musculus, UniProt Q64695)", "T2 construct": "endogenous in cells; host or cells: primary naïve CD4+ T cells polarised to Th17 (TGF-β1 + IL-6)", "T2 sequence (Q64695 18-242)": "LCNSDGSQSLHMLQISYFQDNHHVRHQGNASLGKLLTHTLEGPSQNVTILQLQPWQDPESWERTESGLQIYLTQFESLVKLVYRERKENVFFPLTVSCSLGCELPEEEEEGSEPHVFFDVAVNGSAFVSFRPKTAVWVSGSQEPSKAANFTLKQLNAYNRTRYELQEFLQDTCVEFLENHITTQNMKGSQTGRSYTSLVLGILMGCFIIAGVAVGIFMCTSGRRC", "test": "Intracellular IFN-γ/IL-17 staining and IL-17 ELISA of Th17 cells differentiated with activated protein C", "type": "cell-based", "details": "aPC 300 nM; flow cytometry day 3, ELISA day 3 and 5", "description": "FIG. 20A depicts how naïve CD4+ T cells were differentiated into Th17 cells by anti-CD3/anti-CD28 stimulation in the presence of activated protein C (aPC, 300 nM), the ligand of PROCR. On day 3, cells were stimulated with PMA and Ionomycin for 4 hr, stained intracellularly for IFN-γ and IL-17 and analyzed by flow cytometry. FIG. 20B depicts IL-17 production from Th17 cells (TGF-β+IL-6) differentiated with or without activated protein C (aPC and Ctl, respectively) was assessed by ELISA on Day 3 and 5. FIG. 20C depicts how naïve CD4+ T cells were polarized under Th17 conditions (TGF-β+IL-6), transduced with either GFP control retrovirus (Ctl RV) or PROCR-expressing retrovirus (PROCR RV). Intracellular expression of IFN-γ and IL-17 in GFP+ cells were assessed by flow cytometry. FIG. 20D depicts how naïve CD4+ T cells from EPCR δ/δ mice and control mice were polarized under Th17 conditions with TGF-β1 and IL-6. Intracellular expression of IFN-γ and IL-17 were assessed by flow cytometry."}, "[5]": {"test_system": "EAE", "test": "EAE (experimental autoimmune encephalomyelitis) clinical scoring", "type": "in vivo, mouse", "details": "schematic of PROCR regulation (FIG. 26D)", "excerpt": "FIGS. 26A-26D are a series of graphs and illustrations depicting that PROCR deficiency exacerbates EAE severity. FIG. 26A depicts frequency of CD4+ T cells expressing IL-17 and PROCR isolated from EAE mice 21d after immunization with MOG35-55. FIG. 26B depicts how EAE was induced by adoptive transfer of MOG35-55-specific 2D2 cells transduced with a control retrovirus (Ctl_GFP) or a PROCR-expression retrovirus (PROCR_RV) and differentiated into Th17 cells. Mean clinical scores and summaries for each group are shown. Results are representative of one of two experiments. FIG. 26C depicts how Rag1−/− mice were reconstituted with either PROCR-deficient (EPCR δ/δ→Rag1−/−) or WT T cells (WT→Rag1−/−) and immunized with MOG35-55 to induce EAE. The mean clinical score of each group is shown. Results are representative of one of two experiments. FIG. 26D depicts a schematic representation of PROCR regulation. Rorγt, IRF4, and STAT3 induce PROCR expression.\nCyTOF and flow cytometry: Active induction of EAE and disease analysis: For active induction of EAE, mice were immunized by subcutaneous injection of 100 μg MOG (35-55) ([…]) (SEQ ID NO: 1395) in CFA, then received 200 ng pertussis toxin intraperitoneally (List Biological Laboratory) on days 0 and 2. […]"}, "[6]": {"target": "T2, PROCR", "test": "qRT-PCR of pathogenic/non-pathogenic signature genes in Th17 cells differentiated in the presence of activated protein C", "type": "cell-based", "excerpt": "FIG. 23A depicts quantitative RT-PCR analysis of mRNA expression of several pathogenic signature genes in Th17 cells differentiated with TGFβ1 and IL-6 in the presence of activated protein C (aPC) for 3 days in vitro. FIG. 23B depicts quantitative RT-PCR analysis of mRNA expression of several pathogenic signature genes in naïve CD4^+ T cells polarized under Th17 conditions, transduced with either GFP control retrovirus (Control RV) or PROCR-expressing retrovirus (PROCR RV) for 3 days. FIG. 23C depicts quantitative RT-PCR analysis of mRNA expression of several pathogenic signature genes in Th17 cells from EPCR δ/δ mice and control mice differentiated with TGFβ1 and IL-6 for 3 days in vitro.\nFIGS. 32A-32D are a series of graphs depicting how PROCR and PD-1 expression affects Th17 pathogenicity. FIG. 32A depicts signature genes of pathogenic and non-pathogenic Th17 cells. Naïve CD4+ T cells were differentiated into non-pathogenic (TGFβ1+IL-6) or pathogenic (TGFβ3+IL-6 or IL-β1+IL-6) Th17 cells and PROCR expression was determined by quantitative PCR. FIG. 32B depicts how naïve WT or PROCRd/d CD4+ T cells were stimulated under Th17 polarizing conditions (TGFβ1+IL-6) in the presence or absence of aPC. Quantitative expression of three pathogenic signature genes was determined on day 3. […] Mice were monitored for EAE. […] Mice were monitored for EAE."}}, "note": "“Also recorded” adds a separate entry of the source.", "data": [{"molecule": "CC(CO)CCC[C@@H](C)[C@H]1CC[C@H]2[C@@H]3C(O)C=C4C[C@@H](O)CC[C@]4(C)[C@H]3CC[C@]12C", "note": "(stereo partly shown) [7, 27 dihydroxycholesterol, 7, 27-dihydroxycholesterol]", "values": [{"measurement": "Il17 reporter transcription under CD5L-driven suppression", "setting": "[1]", "value": "rescued the CD5L-driven suppression"}]}, {"molecule": "CCCCCCCCCCCCCCCC(=O)O", "note": "[SFA, palmitic acid]", "values": [{"measurement": "316 gene signature of Th17 cell differentiation and function", "setting": "[2]; WT Th17 cells (TGFβ1+IL-6), 25 uM palmitic acid, Nanostring nCounter", "value": "more similar to CD5L^−/− Th17 cells"}, {"measurement": "Il22 expression", "setting": "[2]; qPCR", "value": "increased"}, {"measurement": "expression of key pathogenicity signature genes Il10, Il23r, Ccl5, Csf2 and Lag3", "setting": "[2]; qPCR", "value": "reciprocally regulated"}, {"measurement": "percentage of IL-23R.GFP+ CD4 T cells", "setting": "[3]; IL-23RGFP reporter Th17 (TGFβ1+IL-6) expanded with IL-23", "value": "increased the expression of both IL-17 and IL-23R expression, but this effect was not significant"}, {"measurement": "percentage of IL-17+ CD4 T cells", "setting": "[3]; WT Th17 (TGFβ1+IL-6) expanded with IL-23", "value": "increased the expression of both IL-17 and IL-23R expression, but this effect was not significant"}]}, {"molecule": "activated protein C: the ligand of PROCR (protein, UniProt P04070 200-461, looked up, Vitamin K-dependent protein C heavy chain activated two-chain form, the ligand of PROCR) Vitamin K-dependent protein C …: DTEDQEDQVDPRLIDGKMTRRGDSPWQVVLLDSKKKLACGAVLIHPSWVLTAAHCMDESKKLLVRLGEYDLRRWEKWELDLDIKEVFVHPNYSKSTTDNDIALLHLAQPATLSQTIVPICLPDSGLAERELNQAGQETLVTGWGYHSSREKEAKRNRTFVLNFIKIPVVPHNECSEVMSNMVSENMLCAGILGDRQDACEGDSGGPMVASFHGTWFLVGLVSWGEGCGLLHNYGVYTKVSRYLDWIHGHIRDKEAPQKSWAP", "values": [{"measurement": "cytokine production (IFN-γ, IL-17) from Th17 cells", "setting": "[4]", "value": "not essential for cytokine production"}, {"measurement": "pathogenicity in EAE", "setting": "[5]", "value": "reduced pathogenicity"}, {"measurement": "mRNA expression of pathogenic signature genes in Th17 cells", "setting": "[6]; Th17 cells differentiated with TGFβ1 and IL-6 in the presence of aPC for 3 days, quantitative RT-PCR", "value": "impairs some pathogenic signature genes; also recorded: downregulation of the pathogenic signature genes IL-3, CXCL3, CCL4 and Pdp; also recorded: decreased the expression of some of the genes"}, {"measurement": "expression of non-pathogenic signature genes in Th17 cells", "setting": "[6]; Th17 polarizing conditions (TGFβ1+IL-6) with aPC, day 3", "value": "induces some non-pathogenic signature genes"}]}]}
